# Data published in US20260008760A1, “DIPEPTIDYL PEPTIDASE 1 INHIBITORS AND USES THEREOF” (Insmed Incorporated, priority 2024, published 2026).
# Tests used:
# human DPP1 enzyme = human DPP1 enzyme (Homo sapiens, UniProt P53634); assay: Human DPP1 Enzyme Single-Point Percent Inhibition Testing (HL-60 lysate); format: biochemical; parameters: A crude lysate of HL-60 cells (ATCC; Manassas, VA) was used as a source of human DPP1 enzyme; host or cells: HL-60 cells (crude lysate); conditions: final compound concentration of 10 nM, 400 μM H-Gly-Arg-AMC, n = 1
# human DPP1 enzyme, sequence (P53634 25-463): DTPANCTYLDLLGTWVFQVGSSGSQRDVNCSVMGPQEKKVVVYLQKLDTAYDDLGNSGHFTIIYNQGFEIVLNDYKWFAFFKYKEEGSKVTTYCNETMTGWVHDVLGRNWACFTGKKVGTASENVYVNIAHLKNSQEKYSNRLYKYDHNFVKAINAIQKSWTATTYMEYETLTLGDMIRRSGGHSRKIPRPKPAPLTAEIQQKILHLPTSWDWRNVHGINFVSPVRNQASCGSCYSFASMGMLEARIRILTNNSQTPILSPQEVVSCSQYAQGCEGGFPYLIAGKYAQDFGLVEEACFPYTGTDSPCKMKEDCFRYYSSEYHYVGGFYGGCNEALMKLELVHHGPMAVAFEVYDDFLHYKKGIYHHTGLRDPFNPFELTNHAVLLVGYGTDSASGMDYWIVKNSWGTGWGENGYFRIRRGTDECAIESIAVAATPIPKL
# Protocol: Example 98. Human DPP1 Enzyme Single-Point Percent Inhibition Testing
# A crude lysate of HL-60 cells (ATCC; Manassas, VA) was used as a source of human DPP1 enzyme in the assay. Lysate was prepared in 1% Triton X-100 in PBS at a concentration of 20,000 live cells per μL of lysis buffer and was centrifuged at 16,000 rcf for 10 minutes at 4° C., after which supernatant was collected and flash-frozen in liquid nitrogen. Test articles were applied to human DPP1 enzyme in Assay Buffer (25 mM MES pH 6.0, 50 mM NaCl, 5 mM DTT) in a total reaction volume of 125 μL. 25 μL of compound diluted to 50 nM in Assay Buffer plus 5% DMSO was first added to 50 μL of HL-60 lysate diluted to contain a DPP1 enzyme concentration of roughly 1 ng/μL and allowed to pre-incubate for 10 minutes at 37° C. after which 50 μL of 1000 μM H-Gly-Arg-AMC substrate (Bachem; St. Torrance, CA) was added, giving final compound concentration of 10 nM, a final substrate concentration of 400 μM and a final DMSO concentration of 1%. Substrate cleavage was measured for 90 minutes at 37° C., with fluorescence at Excitation/Emission 350/450 nm measured every 5 minutes. DPP1 concentration was interpolated based on its activity relative to a standard curve of activated human recombinant DPP1 enzyme. Percent inhibition at 10 nM was calculated for each test article based on remaining DPP1 activity compared to enzyme activity in wells that received only vehicle control.
# DPP1 in HL-60 cells = DPP1 in HL-60 cells (Homo sapiens, UniProt P53634); assay: DPP1 Cell Single-Point Percent Inhibition Testing; format: cell-based; parameters: host or cells: HL-60 cells; conditions: final compound concentration 5 nM, n = 1
# DPP1 in HL-60 cells, sequence (P53634 25-463): as above
# Protocol: Example 100. DPP1 Cell Single-Point Percent Inhibition Testing
# HL-60 cells (ATCC; Manassas, VA) were maintained in RPMI-1640 supplemented with 20% heat-inactivated FBS and 1× Antibiotic Antimycotic (Cytiva; Marlborough, MA). Media was changed every three to four days and cells were not allowed to exceed 1×10^6 cells per mL. Prior to assay, cells were collected by centrifugation at 500 rcf for 3 minutes, resuspended in RPMI (with no additional supplements) and counted. Cells were diluted in RPMI to a concentration of 5×10^5 live cells per mL and transferred to black 96-well plates for assay, 60 μL per well. Test articles were diluted to 25 nM in RPMI plus 0.5% DMSO, and 20 μL was added to each assay well. Compound was allowed to pre-incubate with cells with gentle shaking at 100 rpm for 60 minutes at 37° C. in a cell culture incubator maintained at 5% CO2, after which 20 μL of 500 μM H-Gly-Phe-AFC cell-permeable substrate (MP Biomedicals; Solon, OH) in RPMI was added to each well, giving final compound concentration of 5 nM, a final substrate concentration of 100 μM and a final DMSO concentration of 0.1%. Plates were returned to the incubator with shaking at 100 rpm for 30 minutes, after which fluorescence was measured at Excitation/Emission 400/505 nm. Percent Inhibition was calculated from RFU values by first subtracting background values (wells in which RPMI was substituted for cells) from each well, and then subtracting background-subtracted RFU derived from wells that received a final concentration of 10 μM brensocatib. This value represents the non-specific substrate cleavage from the HL-60 cells, and the remaining RFU should theoretically be solely the contribution of DPP1 enzyme activity. The final percent inhibition value was calculated for each test article based on remaining RFU compared to RFU from wells that received only vehicle control.
SMILES,inhibition at 0.01 µM (human DPP1 enzyme),inhibition at 0.005 µM (DPP1 in HL-60 cells)
CO[C@@H]1CCNC[C@@H](C(=O)N[C@H](C#N)Cc2ccc(-c3cc4c(C)ncc(C)n4c3)cc2)OC1 [Compound A122],≥ 66.7%,76.5 to 93.9%
CO[C@@H]1CCNC[C@@H](C(=O)N[C@H](C#N)Cc2ccc(-c3cc4c(C)nc(C)c(C)n4c3)cc2)OC1 [Compound A123],≥ 66.7%,≥ 93.9%
COC1CNC[C@@H](C(=O)N[C@H](C#N)Cc2ccc(-c3cc4c(C)ncc(C)n4c3)cc2)OC1 (some centres unmarked) [Compound A125],≥ 66.7%,≥ 93.9%
COC1CNC[C@@H](C(=O)N[C@H](C#N)Cc2ccc(-c3cc4c(C)nc(C)c(C)n4c3)cc2)OC1 (some centres unmarked) [Compound A126],≥ 66.7%,≥ 93.9%
CO[C@H]1CCO[C@H](C(=O)N[C@H](C#N)Cc2ccc(-c3cc4c(C)ncc(C)n4c3)cc2)CNC1 [Compound A128],40 to 66.7%,76.5 to 93.9%
CO[C@H]1CCO[C@H](C(=O)N[C@H](C#N)Cc2ccc(-c3cc4c(C)nc(C)c(C)n4c3)cc2)CNC1 [Compound A129],40 to 66.7%,76.5 to 93.9%
Cc1ncc(C)n2cc(-c3ccc(C[C@@H](C#N)NC(=O)[C@@H]4CN[C@@H](C)[C@H](O)CO4)cc3)cc12 [Compound A131],≥ 66.7%,≤ 76.5%
Cc1nc(C)c2cc(-c3ccc(C[C@@H](C#N)NC(=O)[C@@H]4CN[C@@H](C)[C@H](O)CO4)cc3)cn2c1C [Compound A132],≥ 66.7%,76.5 to 93.9%
Cc1ncc(C)n2cc(-c3ccc(C[C@@H](C#N)NC(=O)[C@@H]4CN[C@@H](C)[C@@H](O)CO4)cc3)cc12 [Compound A134],40 to 66.7%,≤ 76.5%
Cc1nc(C)c2cc(-c3ccc(C[C@@H](C#N)NC(=O)[C@@H]4CN[C@@H](C)[C@@H](O)CO4)cc3)cn2c1C [Compound A135],≤ 40%,≤ 76.5%
CO[C@@H]1CCNC[C@@H](C(=O)N[C@H](C#N)Cc2cc3c(cc2F)-c2ccc(C#N)cc2CO3)OC1 [Compound B20],≥ 66.7%,≥ 93.9%
CO[C@@H]1CCNC[C@@H](C(=O)NC(C#N)Cc2cc3c(cc2F)-c2cc(C#N)ccc2CO3)OC1 (some centres unmarked) [Compound B21],≥ 66.7%,76.5 to 93.9%

# Next, values leading:
inhibition at 0.01 µM (human DPP1 enzyme),inhibition at 0.005 µM (DPP1 in HL-60 cells),SMILES
≤ 40%,≤ 76.5%,N#C[C@H](Cc1ccc(-c2ccc3c(n2)CCCN3)cc1)NC(=O)[C@@H]1CNCCCO1 [Compound A117]
≤ 40%,≤ 76.5%,Cc1cn2cc(-c3ccc(C[C@@H](C#N)NC(=O)[C@@H]4CNCCCO4)c(F)c3)cc2c(C)n1 [Compound A118]
≤ 40%,≤ 76.5%,N#C[C@H](Cc1ccc(-c2ccc3c(n2)CCCN3)cc1F)NC(=O)[C@@H]1CNCCCO1 [Compound A119]
≤ 40%,≤ 76.5%,N#C[C@H](Cc1ccc(-c2cnc3c(n2)CCCC3)cc1F)NC(=O)[C@@H]1CNCCCO1 [Compound A120]
≤ 40%,76.5 to 93.9%,Cc1ncc(C)n2cc(-c3ccc(C[C@@H](C#N)NC(=O)[C@@H]4CNCCCO4)cc3)cc12 [Compound A140]
≤ 40%,76.5 to 93.9%,Cc1nc(C)c2cc(-c3ccc(C[C@@H](C#N)NC(=O)[C@@H]4CNCCCO4)cc3)cn2c1C [Compound A141]
40 to 66.7%,≤ 76.5%,CN1CCC(n2ncc3ccc(-c4ccc(C[C@@H](C#N)NC(=O)[C@@H]5CNCCCO5)c(F)c4)cc32)CC1 [Compound A144]
